Experimental data reported in US6749832B2, “Labelled ascorbic acid derivatives” (Amersham PLC, priority 1999, dated 2004).

Key:
[1] = reported in the literature; cited from earlier work
[2] = tested on: mineralising nodules of primary rat osteoblasts; experiment: Autoradiography of mineralised bone nodules produced by cultured rat osteoblasts; assay type: cell-based; settings: 21-day culture period
Protocol: Foetus heads were collected and sprayed with 70% isopropanol. Calvaria were then removed by cutting the skin from the top of the head, making one incision through the calvaria from the external auditory meatus across behind the parietal bones and a second forward to above the eye sockets. When all the calvaria were isolated, they were rinsed with PBS (Ca^2+ and Mg^2+-free), then incubated in trypsin at 37° C. for 10 minutes. Calvaria were transferred into 0.2% collagenase (type II) in HBSS for 30 minutes at 37° C. This collagenase digestion was repeated for 60 minutes to release the osteoblast populations. Supernatant was removed and spun down to obtain a cell pellet. The pellet was resuspended in media, viable cells counted and plated out into a T75 flask. Once confluent, cells were subcultured into 6-multiwell plates at 2×10^4-2×10^5 cells/well in 3 ml medium containing 1 mM β-glycerophosphate. In addition ascorbic acid (50 μg/ml), ^14C-ascorbic acid (19.6 μCi/ml) or ^14C-compound 7 (2.8 μCi/ml) were incubated with osteoblasts over the culture period. Cells were fed two to three times per week and cultured for up to 21 days. Nodules became macroscopically visible at around 7-10 days and commenced mineralisation (assessed by Alizarin red staining) soon after. […]

[3] = tested on: MC3T3-E1 murine pre-osteoblast cells; experiment: Standard cell uptake assay: competition for uptake of ^14C-ascorbic acid; assay type: cell-based; settings: for IC50: Mus musculus, competition with ^14C-ascorbic acid uptake into MC3T3-E1 cells; for Competition: competition with 125 μM ^14C-ascorbic acid for uptake into MC3T3-E1 cells, 60 min
Protocol: Unlabelled ascorbic acid derivatives of the present invention have been tested for their ability to compete for uptake of ^14C-ascorbic acid into MC3T3-E1 cells, a murine pre-osteoblast cell line. MC3T3-E1 cells are grown in tissue culture plates and the appropriate assay solution containing a standard concentration of ^14C-ascorbic acid plus a competing concentration of ascorbic acid derivative added to each well. The amount of ^14C-ascorbic acid taken up by the cells in 60 min is then measured.
Standard Cell Uptake Assay
Transport buffer: 134 mM NaCl, 5.4 mM KCl, 1.8 mM CaCl2, 0.8 mM MgSO4, 20 mM HEPES, 10 mM glucose, pH7.3, stored at room temperature
Assay buffer: Transport buffer+40 μM […] ^14C-ascorbic acid (Amersham Pharmacia Biotech)
Stock solution: 50 μCi in 50 μl Analar water, stored at −20° C.
Assay solution: 200 nCi ^14C-ascorbic acid in 200 μl assay buffer/well (125 μM)
Stop buffer: 200 μM phloretin in assay buffer, chilled to 4° C.
Lysis solution: 0.1% SDS in Analar water
MC3T3-E1 murine pre-osteoblast cells were seeded in a 24-well plate at 2×10^5 cells/well in 1 ml minimal essential media plus 10% FCS, penicillin and streptomycin. Cells were grown overnight at 37° C., 5% CO2. Assay buffer and solutions were prepared on the morning of the assay. Cells were examined under the microscope for confluence and viability. Growth media was removed using a Liquipippette and each well washed with 2×200 μl assay buffer. The appropriate assay solution was added to each well and the plate incubated at 37° C. for the required time. To stop the reaction, 0.5 ml chilled stop buffer was added to each well. Each well was then washed with 0.5 ml stop buffer. Cells were lysed in 0.1% SDS solution for approximately 10 min and solutions transferred to scintillation vials. Each well was then washed with assay buffer and this wash solution also transferred to the appropriate scintillation vial. Scintillation fluid (5 ml) was added to each vial, the vials vortexed and counted on a Rackbeta counter.

Row | SMILES | IC50 [3] [µM] | Competition [3] | further results
1 | O=C1O[C@H]([C@@H](O)C[18F])C(O)=C1O [^18F-DFA, 6-deoxy-6-[^18F]fluoro-L-ascorbic acid] | – | – | bone uptake [1]: very low
2 | O=C1O[C@H]([C@@H](O)CO)C(O)=C1O [^14C-ascorbic acid] | – | – | association with / accumulation in mineralised bone nodules (autoradiography) [2]: associated with the mineralising nodules
3 | O=C(/C=C/I)OCC(O)C1OC(=O)C(O)=C1O (stereo not drawn) [Compound 15] | 796 | Yes | –
4 | O=C1OC(C(O)CSc2ccccc2)C(O)=C1O (stereo not drawn) [Compound 16] | 1850 | Yes | competition for uptake of ^14C-ascorbic acid into MC3T3-E1 cells (text) [3]: competed; competition for uptake of ^14C-ascorbic acid into MC3T3-E1 cells (text) ([3]; listed as compound 16): very weak
5 | O=C1O[C@H]([C@@H](O)COC(=O)c2ccc(I)cc2)C(O)=C1O [Compound 12, 6-O-(4-iodobenzoyl)-L-ascorbic acid] | 384 | Yes | –
6 | O=C1O[C@H]([C@@H](O)CO)C(O)=C1O [Ascorbic acid, ascorbic acid] | 258 | Yes | –
